# Source: patent US9012458B2, “Antitumor agent using compounds having kinase inhibitory effect in combination” (Eisai R&D Management Co., Ltd., priority 2010, dated 2015)
# Counter-ions that a name gives are not always drawn.
# What was measured:
# Format in all cases: in vivo
# [1] = tested on: human gastric cancer cell line (IM95m); test: Combined effect in model animal transplanted with human gastric cancer cell line (IM95m); details: IM95m s.c. in nude mouse, Compound A 10 mg/kg, Compound B 100 mg/kg, oral once daily, average ± standard deviation
# Protocol: The human gastric cancer cell line IM95m (Health Science Research Resources Bank) was cultured using a DMEM medium (Wako Pure Chemical Industries, Ltd) containing […] glucose, 10% FBS, and 10 μg/mL insulin in a 5% CO2 incubator under the condition of 37° C. When the cells reached a state of approximately 80% confluency, the cells were collected using trypsin-EDTA. To these cells, a Hanks' Balanced Salt Solution containing 50% Matrigel was added to prepare a suspension at 1.0×10^8 cells/mL. The cell suspension thus obtained was subcutaneously transplanted at the lateral side of the body of a nude mouse (CAnN.Cg-Foxn1nu/CrlCrlj, Charles River Laboratories Japan, Inc.) in an amount of 0.1 mL, where each group contained six mice. From 13 days after the transplantation, Compound A (10 mg/kg, once daily, for 21 days) and Compound B (100 mg/kg, once daily, for 21 days) were orally administered continuously, either individually or both in a row.
# Setting the initial day of administration at Day 0, the major axis and the minor axis of a tumor developed in each mouse were measured using Digimatic caliper (Mitsutoyo Corporation) thereafter on Day 4, 7, 11, 14, 18 and 21.
# (§1) The tumor volume and the relative tumor volume were calculated according to the equations below. TV=major axis (mm)×minor axis^2 (mm^2)/2 RTV=TV on the day of measurement/TV on the initial day of administration
# [2] = tested on: human malignant melanoma cell line (SEKI); test: Combined effect in model animal transplanted with human malignant melanoma cell line (SEKI); details: SEKI s.c. in nude mouse, Compound A 10 mg/kg, Compound B 100 mg/kg, oral once daily, average ± standard deviation
# Protocol: The human malignant melanoma cell line SEKI (JCRB Cell bank) was cultured using a 10% FBS-containing RPM 1640 medium (SIGMA) in a 5% CO2 incubator under the condition of 37° C. When the cells reached a state of approximately 80% confluency, the cells were collected using trypsin-EDTA. To these cells, a Hanks' Balanced Salt Solution containing 50% Matrigel was added to prepare a suspension at 5.0×10^7 cells/mL. The cell suspension thus obtained was subcutaneously transplanted at the lateral side of the body of a nude mouse (CAnN.Cg-Foxn1nu/CrlCrlj, Charles River Laboratories Japan, Inc.) in an amount of 0.1 mL, where each group contained six mice. From 11 days after the transplantation, Compound A (10 mg/kg, once daily, for 17 days) and Compound B (100 mg/kg, once daily, for 17 days) were orally administered, either individually or both in a row.
# Setting the initial day of administration at Day 0, the major axis and the minor axis of a tumor developed in each mouse were measured using Digimatic caliper (Mitsutoyo Corporation) thereafter on Day 3, 7, 10, 14, and 17.
# as §1
# [3] = tested on: human glioblastoma cell line (U87MG); test: Combined effect in model animal transplanted with human glioblastoma cell line (U87MG); details: U87MG s.c. in nude mouse, Compound A 10 mg/kg, Compound B 100 mg/kg, oral once daily, average ± standard deviation
# Protocol: (§2) The human glioblastoma cell line (U87MG) (ATCC) was cultured using a 10% FBS-containing E-MEM medium (SIGMA) in a 5% CO2 incubator under the condition of 37° C. When the cells reached a state of approximately 80% confluency, the cells were collected using trypsin-EDTA. To these cells, a Hanks' Balanced Salt Solution containing 50% Matrigel was added to prepare a suspension at a concentration of 5.0×10^7 cells/mL. The cell suspension thus obtained was subcutaneously transplanted at the lateral side of the body of a nude mouse (CAnN.Cg-FOXn1nu/CrlCrlj, Charles River Laboratories Japan, Inc.) in an amount of 0.1 mL, where each group contained six mice. Compound A (10 mg/kg, once daily, for 21 days) and Compound B (100 mg/kg, once daily, for 21 days) were orally administered, either individually or both in a row.
# Setting the initial day of administration at Day 0, the major axis and the minor axis of a tumor developed in each mouse were measured using Digimatic caliper (Mitsutoyo Corporation) thereafter on Day 2, 5, 7, 9, 12, 14, 16, 19, and 21.
# as §1
# [4] = tested on: human ovarian cancer cell line (A2780); test: Combined effect in model animal transplanted with human ovarian cancer cell line (A2780); details: A2780 s.c. in nude mouse, Compound A 10 mg/kg, Compound B 100 mg/kg, oral once daily, average ± standard deviation
# Protocol: as §2, with “ovarian cancer” for “glioblastoma”, “A2780” for “(U87MG)”, “RPMI 1640” for “E-MEM”, “(CAnN.Cg-Foxn1nu/CrlCrlj,” for “(CAnN.Cg-FOXn1nu/CrlCrlj,”, “10” for “21”
# Setting the initial day of administration at Day 0, the major axis and the minor axis of a tumor developed in each mouse were measured using Digimatic caliper (Mitsutoyo Corporation) thereafter on Day 3, 5, 8, and 10.
# as §1
SMILES,RTV (relative tumor volume) Day 4 [1],RTV (relative tumor volume) Day 7 [1],RTV (relative tumor volume) Day 11 [1],RTV (relative tumor volume) Day 14 [1],RTV (relative tumor volume) Day 18 [1],RTV (relative tumor volume) Day 21 [1],RTV (relative tumor volume) Day 3 [2],RTV (relative tumor volume) Day 7 [2],RTV (relative tumor volume) Day 10 [2],RTV (relative tumor volume) Day 14 [2],RTV (relative tumor volume) Day 17 [2],RTV (relative tumor volume) Day 2 [3],RTV (relative tumor volume) Day 5 [3],RTV (relative tumor volume) Day 7 [3],RTV (relative tumor volume) Day 9 [3],RTV (relative tumor volume) Day 12 [3],RTV (relative tumor volume) Day 14 [3],RTV (relative tumor volume) Day 16 [3],RTV (relative tumor volume) Day 19 [3],RTV (relative tumor volume) Day 21 [3],other results
"COc1cc2nccc(Oc3ccc(NC(=O)NC4CC4)c(Cl)c3)c2cc1C(N)=O [Compound A, 4-(3-chloro-4-(cyclopropylaminocarbonyl)aminophenoxy)-7-methoxy-6-quinolinecarboxamide mesylate]",1.53 ± 0.12,2.10 ± 0.18,2.65 ± 0.37,2.65 ± 0.49,2.80 ± 0.47,3.18 ± 0.57,1.71 ± 0.19,2.88 ± 0.35,3.74 ± 0.53,5.06 ± 0.49,5.92 ± 0.50,0.95 ± 0.08,1.27 ± 0.07,1.59 ± 0.16,1.85 ± 0.13,3.29 ± 0.32,4.76 ± 0.49,6.19 ± 0.95,9.60 ± 1.99,11.53 ± 2.57,RTV (relative tumor volume) Day 3 [4]: 1.92 ± 0.17; RTV (relative tumor volume) Day 5 [4]: 4.77 ± 0.85; RTV (relative tumor volume) Day 8 [4]: 9.51 ± 2.44; RTV (relative tumor volume) Day 10 [4]: 12.37 ± 3.53
"CN1CCN(C2CCN(C(=O)Nc3cc(Oc4ccc(NC(=O)C5(C(=O)Nc6ccc(F)cc6)CC5)c(F)c4)ccn3)CC2)CC1 [Compound B, N-(2-fluoro-4-{[2-({[4-(4-methylpiperazin-1-yl)piperidin-1-yl]carbonyl}amino)pyridin-4-yl]oxy}phenyl)-N′-(4-fluorophenyl)cyclopropane-1,1-dicarboxamide tartrate]",1.12 ± 0.08,1.24 ± 0.15,1.75 ± 0.17,1.85 ± 0.16,3.09 ± 0.48,4.02 ± 1.05,1.76 ± 0.22,2.93 ± 0.57,4.06 ± 0.85,5.23 ± 0.20,5.80 ± 1.35,0.69 ± 0.05,0.61 ± 0.05,0.56 ± 0.10,0.57 ± 0.07,0.65 ± 0.08,0.73 ± 0.12,0.93 ± 0.13,1.65 ± 0.37,2.23 ± 0.51,RTV (relative tumor volume) Day 3 [4]: 2.23 ± 0.42; RTV (relative tumor volume) Day 5 [4]: 7.01 ± 1.54; RTV (relative tumor volume) Day 8 [4]: 15.70 ± 2.27; RTV (relative tumor volume) Day 10 [4]: 21.29 ± 2.76
